Results from US12415799B2, “Indazole-fused cyclic compound” (Zhejiang Yangli Pharmaceutical Technology Co., Ltd., priority 2020, dated 2025).
Like-named read-outs stand apart in the source and are kept apart here.

Key:
MCF-7 cells = assay: MCF-7 cell proliferation inhibition experiment; format: cell-based; details: 6 days incubation, CellTiter-Glo, read-out: Anti-cell proliferation activity of MCF-7
Experimental: (1) MCF-7 Cell Proliferation Inhibition Experiment:
EMEM culture medium was purchased from Wisent, and fetal bovine serum was purchased from Biosera, Promega CellTiter-Glo reagent. MCF-7 cell line was purchased from Cell Bank of Type Culture Collection of Chinese Academy of Sciences. Nivo5 multi-label analyzer (PerkinElmer).
MCF-7 cells were seeded in a white 384-well plate with 600 cells per well in every […] of the cell suspension. The cell plate was placed in a carbon dioxide incubator and cultured overnight.
The test compound was diluted to the 10th concentration with a multi-channel pipette, and the compound concentration was 1 mM, 400 μM, and 80 μM, and then diluted to the 10th concentration of 1 nM in turn, and a double-duplicate experiment was set-up. 47.5 μL of culture medium was added to the middle plate, then 2.5 μL of gradient dilution compound per well was transferred to the middle plate according to the corresponding position, and 5 μL of the mixture per well was mixed evenly and transferred to the cell plate. The cell plate was placed in a carbon dioxide incubator and cultured for 6 days.
After 6 days of co-incubation of the compound, the culture medium was removed by centrifugation, and 25 μL of Promega CellTiter-Glo reagent was added to each well of the cell plate, and incubated at room temperature for 10 minutes to stabilize the luminescence signal. PerkinElmer Nivo multi-marker analyzer reading was used. In the experiment, the reading of 2 μM positive reference compound H3B-6545(US20160347717A1) was used as a positive control to participate in data calculation.
The equation % Inhibition=((RFUCmpd−AVER(RFUNeg.ctrl))/((AVER(RFUPos.Ctrl)−AVER(RFUNeg.ctrl))×100% was used to convert the original data into inhibition rate, and the compound curve was fitted by log(inhibitor)vs. response-Variable slope of Graphpad Prism 5. The IC50 value was calculated by the software through the formula Y=Bottom+(Top−Bottom)/(1+10^((Log IC50−X)*HillSlope)).

[1] = test system: MCF-7 breast cancer cell xenograft; assay: In vivo efficacy, MCF-7 breast cancer cell xenograft model; set-up: species or system BALB/c nude mice
Experimental: The purpose of this experiment was to evaluate the antitumor effect of the compound of the present disclosure on MCF-7 breast cancer cell xenograft BALB/c nude mice (provided by the Experimental Animal Management Department of the Shanghai Institute of Family Planning Sciences, and the number of test animals in each experimental group was 5) model.
Mice were subcutaneously inoculated with 0.36 mg, 60-day slow-release estrogen tablets in the left shoulder three days before inoculation. When the cells were in the logarithmic growth phase, the cells were collected and counted, and the cell concentration was adjusted to 10×10^7 cells/mL, and an equal volume of Matrigel was added to mix evenly and then used for inoculation. Each mouse was subcutaneously inoculated with 0.2 mL of MCF-7 tumor cell suspension (10×10^6) on the right shoulder. On day 9 after tumor cell inoculation, the average tumor volume was 160 mm^3 and the body weight was 22.0 to 23.0 g, which was administered in groups and administered once a day. Tumor volume and weight measurements were performed twice a week after grouping, and tumor proliferation rate (T/C) and tumor growth inhibition rate (TGI) were calculated for the last tumor volume data on the day 21 after grouping, and the antitumor effect of compounds was evaluated by TGI (%) or relative tumor proliferation rate T/C (%). TGI (%), reflecting the tumor growth inhibition rate. TGI (%)=[(1-(average tumor volume at the end of administration of a certain treatment group-average tumor volume at the beginning of administration of this treatment group)/(average tumor volume at the end of treatment in the solvent control group-average tumor volume at the beginning of treatment in this solvent control group)]×100%, relative tumor proliferation rate T/C (%)=TRTV/CRTV×100% (TRTV: average RTV of the treatment group; CRTV: average RTV of the negative control group). The relative tumor volume (RTV) was calculated according to the results of tumor measurement, and the formula was RTV=Vt/V0, wherein V0 was the average tumor volume measured at the time of group administration (i.e., D0), and Vt was the tumor volume at a certain measurement, TRTV and CRTV were taken on the same day.

[2] = In vivo pharmacokinetic study in rats; set-up: species or system male SD rats
Text: Experimental purposes: To test the drug concentration in plasma of rats at different times after intravenous and intragastric administration of the test compound by LC/MS/MS using male fasted SD rats as the experimental animals. To study the pharmacokinetics of the test compound in rats in vivo and evaluate their pharmacokinetic characteristics.
Experimental animals: 4 healthy male SD rats were divided into 2 groups according to the principle of similar body weight, with 2 mice in each group in IV group and 2 mice in each group in PO group. Animals were purchased from Beijing Vital River Laboratory Animal Co., Ltd.
IV group: Appropriate number of samples were weighed and prepared into 0.5 mg/mL solution respectively, and the mixture was stirred and ultrasonicated to reach a clear state, and the solvent was 15% HP-β-CD.
PO group: Appropriate amount of the solution prepared in IV group was diluted to 0.4 mg/mL with 15% HP-β-CD.
Administration: After fasting overnight, IV group was administered intravenously, and the dosage of the test compound was 1 mg/kg; PO group was administered intragastrically, and the dosage of the test compound was 2 mg/kg.
After the male rats in the intravenous injection group were given the test compound respectively, 200 μL of blood was collected from the jugular vein at 0.0833, 0.25, 0.5, 1, 2, 4, 8, and 24 hours, and placed in a commercialized anticoagulant tube added with EDTA-K2 in advance. After intragastric administration of the test compound, 200 μL of blood was collected from the jugular vein at 0.25, 0.5, 1, 2, 4, 8, 12 and 24 hours, respectively, and placed in a commercialized anticoagulant tube added with EDTA-K2 in advance. After centrifugation (3,200 g, 4° C., 10 minutes), the plasma was collected, transferred to a pre-cooled centrifuge tube, quickly frozen in dry ice, and stored in a refrigerator at −60° C. or lower, until LC-MS/MS analysis. Animals were allowed to eat 4 hours after administration. LC/MS/MS method was used to determine the content of the test compound in the plasma of rats after intravenous and intragastric administration. The linear range of the method was 2.00 to 2000 nM.

[3] = male, SD, rat, plasma, iv, i.v. 1 mg/kg
[4] = male, SD, rat, plasma, po, p.o. 2 mg/kg

SMILES | Tumor volume ([1]; Day 0, 5 mg/kg once a day) [mm^3] | Tumor volume ([1]; Day 4, 5 mg/kg once a day) [mm^3] | Tumor volume ([1]; Day 7, 5 mg/kg once a day) [mm^3] | Tumor volume ([1]; Day 11, 5 mg/kg once a day) [mm^3] | Tumor volume ([1]; Day 14, 5 mg/kg once a day) [mm^3] | Tumor volume ([1]; Day 18, 5 mg/kg once a day) [mm^3] | T/C (%) (Day 21) ([1]; Day 21, 5 mg/kg once a day) | TGI (%) (Day 21) ([1]; Day 21, 5 mg/kg once a day) | Tumor volume ([1]; Day 21, 5 mg/kg once a day) [mm^3] | further results
FCCCN1CC(Nc2ccc(C3=C(CC(F)(F)F)CCCc4c3ccc3[nH]nc(F)c43)nc2)C1 [Compound 2] | 161 | 169 | 182 | 186 | 163 | 133 | 12.3 | 106 | 118 | IC50 (MCF-7 cells; Homo sapiens, MCF7, 144 h): 0.42 nM; AUC(0-t) [2, 3]: 0.493 µM·h; clearance [2, 3]: 54.6 mL/min/kg; half-life [2, 3]: 3.62 h; Vd ([2]; male, SD, rat, plasma, iv, i.v. 1 mg/kg, read-out: Vdss): 15.9 L/kg; bioavailability ([2]; male, SD, rat, plasma, oral, p.o. 2 mg/kg vs i.v. 1 mg/kg): 24.3%; AUC(0-t) [2, 4]: 0.24 µM·h; Cmax [2, 4]: 39.3 nM; half-life [2, 4]: 5.8 h
FCCCN1CC[C@H](Nc2cnc(C3=C(CC(F)(F)F)CCCc4c3ccc3[nH]nc(F)c43)cn2)C1 [Compound 11A] | 160 | 184 | 195 | 200 | 176 | 126 | 12.8 | 107 | 112 | IC50 (MCF-7 cells): 0.17 nM; AUC0-last ([2]; i.v. 1 mg/kg): 0.518 µM·h; Cl ([2]; i.v. 1 mg/kg): 53.1 mL/min/kg; T1/2 ([2]; i.v. 1 mg/kg): 3.19 h; Vdss ([2]; i.v. 1 mg/kg): 14.5 L/kg; AUC0-last ([2]; p.o. 2 mg/kg): 0.601 µM·h; Cmax ([2]; p.o. 2 mg/kg): 66.9 nM; T1/2 ([2]; p.o. 2 mg/kg): 8.96 h; F % ([2]; p.o. 2 mg/kg vs i.v. 1 mg/kg): 58.1%
